Test results reported in patent publication EP0555116B1, “Compositions based on antiseptics and their applications” (HUTCHINSON, priority 1992, dated 1993).

Legend:
[1] = tested on: S. aureus ATCC 6538; assay: Growth inhibition test (DGHM, Essai 2, Tables A-C), 72 h at 37°C; non/A/B/C = without or with inactivating substances A, B, C; type: cell-based, Staphylococcus aureus
Procedure: (§1) Un autre essai a été réalisé à partir des solutions suivantes : • 100 ml d'une solution à 0,1 % de digluconate de chlorhexidine (pH 6) et • 100 ml d'une solution à 0,1 % de Bardac 22®.
L'activité de ces solutions, seules ou en combinaison a été plus particulièrement testée vis-à-vis de Staphylococcus aureus ATCC 6538, Escherichia coli ATCC 11229 et Candida albicans ATCC 10231.
(§2) Les tests ont été réalisés conformément au protocole décrit dans le Chapitre I/2.1 et 2.2 de Richtlinien für die Prüfung und Bewertung chemischer Desinfektionsverfahren der DGHM, Stand 1.1., 1981).
Les Tableaux A, B et C illustrent respectivement l'activité bactéricide et fongicide d'une solution aqueuse à 0,1 % de digluconate de chlorhexidine, d'une solution aqueuse à 0,1 % de Bardac 22® et d'un mélange à part égale des deux composés. Les protocoles dont ces Tableaux illustrent les résultats comprennent une incubation de 72 heures à 37°C et l'utilisation, comme témoins, des substances inactivantes suivantes : A : Tween® 80 3 % + lécithine 0,3 % + cystéine 0,1 %; B : Tween® 80 3 % + saponine 3 % + cystéine 0,1 % + histidine 0,1 %; C : Tween® 80 3 % + lécithine 0,3 % + histidine 0,1 % + thiosulfate de sodium 0,5 %.
Dans ces Tableaux, le signe "+" indique une croissance et le signe "-" l'absence de croissance.

[2] = tested on: Candida albicans ATCC 1031; assay: Disinfection time test (Essai 2, Tables D-F), reaction at 22°, subcultures 72 h at 37°C; type: cell-based
Procedure: as §1, §2
(§3) Les tests dont les résultats sont illustrés aux Tableaux D, E et F ont été réalisés à une température de réaction de 22° avec une incubation des sous-cultures 72 heures à 37°C avec comme substances inactivantes : Tween® 80 3 % + saponine 3 % + cystéine 0,1 % + histidine 0,1 %; ces Tableaux illustrent respectivement l'activité bactéricide et fongicide d'une solution aqueuse à 0,1 % de digluconate de chlorhexidine, d'une solution aqueuse à 0,1 % de Bardac 22® et d'un mélange à part égale des deux composés et montrent l'action des antiseptiques précités, en fonction du temps de contact, et font apparaître la même synergie d'action de l'association que ci-dessus, dans la mesure où l'association des deux composés permet de diminuer significativement leur concentration, pour l'obtention d'un même effet. TABLEAU D

[3] = tested on: S. aureus ATCC 6538; assay: as above; type: cell-based, Staphylococcus aureus
Procedure: as §1, §2, §3

With `CCCCCCCCCC[N+](C)(C)CCCCCCCCCC` [Bardac®, chlorure de didécyldiméthylammonium] the croissance ([1]; Conc. 0,1 % (vol/vol), A) was “+”, the croissance ([1]; Conc. 0,1 % (vol/vol), B) was “+” and the croissance ([1]; Conc. 0,1 % (vol/vol), C) was “+”. For the same molecule, the croissance ([1]; Conc. 0,1 % (vol/vol), non) was “-”, the croissance ([1]; Conc. 0,05 % (vol/vol), A) was “+” and the croissance ([1]; Conc. 0,5 % (vol/vol), A) was “+”. For the same molecule, the croissance ([1]; Conc. 0,05 % (vol/vol), B) was “+”, the croissance ([1]; Conc. 0,5 % (vol/vol), B) was “+” and the croissance ([1]; Conc. 0,05 % (vol/vol), C) was “+”. The croissance ([1]; Conc. 0,5 % (vol/vol), C) was “+”, the croissance ([1]; Conc. 0,05 % (vol/vol), non) was “+” and the croissance ([1]; Conc. 0,5 % (vol/vol), non) was “-”. For the same molecule, the croissance ([1]; Conc. 1,0 % (vol/vol), A) was “+”, the croissance ([1]; Conc. 1,0 % (vol/vol), B) was “+” and the croissance ([1]; Conc. 1,0 % (vol/vol), C) was “+”. The croissance ([1]; Conc. 1,0 % (vol/vol), non) was “-”, the croissance ([1]; Conc. 0,00625 % (vol/vol), A) was “+” and the croissance ([1]; Conc. 0,00625 % (vol/vol), B) was “+”. For the same molecule, the croissance ([1]; Conc. 0,00625 % (vol/vol), C) was “+”, the croissance ([1]; Conc. 0,00625 % (vol/vol), non) was “+” and the croissance ([1]; Conc. 0,0125 % (vol/vol), A) was “+”. The croissance ([1]; Conc. 0,0125 % (vol/vol), B) was “+”, the croissance ([1]; Conc. 0,0125 % (vol/vol), C) was “+” and the croissance ([1]; Conc. 0,0125 % (vol/vol), non) was “+”. For the same molecule, the croissance ([1]; Conc. 0,025 % (vol/vol), A) was “+”, the croissance ([1]; Conc. 0,025 % (vol/vol), B) was “+” and the croissance ([1]; Conc. 0,025 % (vol/vol), C) was “+”. For the same molecule, the croissance ([1]; Conc. 0,025 % (vol/vol), non) was “+”, the “concentration en substance active inhibant la croissance” value ([1]; antiseptique seul) was 0,0001% and the croissance ([2]; Conc. 0,1 % (vol/vol), 1 min) was “+”. For the same molecule, the croissance ([2]; Conc. 0,1 % (vol/vol), 3 min) was “+”, the croissance ([2]; Conc. 0,1 % (vol/vol), 5 min) was “+” and the croissance ([2]; Conc. 0,1 % (vol/vol), 15 min) was “+”. For the same molecule, the croissance ([2]; Conc. 0,1 % (vol/vol), 30 min) was “+”, the croissance ([2]; Conc. 0,1 % (vol/vol), 60 min) was “+” and the croissance ([2]; Conc. 0,05 % (vol/vol), 1 min) was “+”. For the same molecule, the croissance ([2]; Conc. 0,5 % (vol/vol), 1 min) was “+”, the croissance ([2]; Conc. 0,05 % (vol/vol), 3 min) was “+” and the croissance ([2]; Conc. 0,5 % (vol/vol), 3 min) was “+”. The croissance ([2]; Conc. 0,05 % (vol/vol), 5 min) was “+”, the croissance ([2]; Conc. 0,5 % (vol/vol), 5 min) was “+” and the croissance ([2]; Conc. 0,05 % (vol/vol), 15 min) was “+”. The croissance ([2]; Conc. 0,5 % (vol/vol), 15 min) was “+”, the croissance ([2]; Conc. 0,05 % (vol/vol), 30 min) was “+” and the croissance ([2]; Conc. 0,5 % (vol/vol), 30 min) was “+”. For the same molecule, the croissance ([2]; Conc. 0,05 % (vol/vol), 60 min) was “+”, the croissance ([2]; Conc. 0,5 % (vol/vol), 60 min) was “+” and the croissance ([2]; Conc. 1 % (vol/vol), 1 min) was “+”. For the same molecule, the croissance ([2]; Conc. 1 % (vol/vol), 3 min) was “+”, the croissance ([2]; Conc. 1 % (vol/vol), 5 min) was “+” and the croissance ([2]; Conc. 1 % (vol/vol), 15 min) was “+”. For the same molecule, the croissance ([2]; Conc. 1 % (vol/vol), 30 min) was “-”, the croissance ([2]; Conc. 1 % (vol/vol), 60 min) was “-” and the croissance ([2]; Conc. 5 % (vol/vol), 1 min) was “+”. The croissance ([2]; Conc. 5 % (vol/vol), 3 min) was “+”, the croissance ([2]; Conc. 5 % (vol/vol), 5 min) was “-” and the croissance ([2]; Conc. 5 % (vol/vol), 15 min) was “-”. The croissance ([2]; Conc. 5 % (vol/vol), 30 min) was “-”, the croissance ([2]; Conc. 5 % (vol/vol), 60 min) was “-” and the croissance ([2]; Conc. 10 % (vol/vol), 1 min) was “-”. For the same molecule, the croissance ([2]; Conc. 10 % (vol/vol), 3 min) was “-”, the croissance ([2]; Conc. 10 % (vol/vol), 5 min) was “-” and the croissance ([2]; Conc. 10 % (vol/vol), 15 min) was “-”. The croissance ([2]; Conc. 10 % (vol/vol), 30 min) was “-”, the croissance ([2]; Conc. 10 % (vol/vol), 60 min) was “-” and the croissance ([2]; Conc. 25 % (vol/vol), 1 min) was “-”. The croissance ([2]; Conc. 25 % (vol/vol), 3 min) was “-”, the croissance ([2]; Conc. 25 % (vol/vol), 5 min) was “-” and the croissance ([2]; Conc. 25 % (vol/vol), 15 min) was “-”. The croissance ([2]; Conc. 25 % (vol/vol), 30 min) was “-”, the croissance ([2]; Conc. 25 % (vol/vol), 60 min) was “-” and the croissance ([3]; Conc. 0,1 % (vol/vol), 1 min) was “+”. The croissance ([3]; Conc. 0,1 % (vol/vol), 3 min) was “+”, the croissance ([3]; Conc. 0,1 % (vol/vol), 5 min) was “+” and the croissance ([3]; Conc. 0,1 % (vol/vol), 15 min) was “+”. The croissance ([3]; Conc. 0,1 % (vol/vol), 30 min) was “+”, the croissance ([3]; Conc. 0,1 % (vol/vol), 60 min) was “+” and the croissance ([3]; Conc. 0,05 % (vol/vol), 1 min) was “+”. The croissance ([3]; Conc. 0,5 % (vol/vol), 1 min) was “+”, the croissance ([3]; Conc. 0,05 % (vol/vol), 3 min) was “+” and the croissance ([3]; Conc. 0,5 % (vol/vol), 3 min) was “+”. For the same molecule, the croissance ([3]; Conc. 0,05 % (vol/vol), 5 min) was “+”, the croissance ([3]; Conc. 0,5 % (vol/vol), 5 min) was “+” and the croissance ([3]; Conc. 0,05 % (vol/vol), 15 min) was “+”. For the same molecule, the croissance ([3]; Conc. 0,5 % (vol/vol), 15 min) was “+”, the croissance ([3]; Conc. 0,05 % (vol/vol), 30 min) was “+” and the croissance ([3]; Conc. 0,5 % (vol/vol), 30 min) was “+”. The croissance ([3]; Conc. 0,05 % (vol/vol), 60 min) was “+”, the croissance ([3]; Conc. 0,5 % (vol/vol), 60 min) was “+” and the croissance ([3]; Conc. 1 % (vol/vol), 1 min) was “+”. For the same molecule, the croissance ([3]; Conc. 1 % (vol/vol), 3 min) was “+”, the croissance ([3]; Conc. 1 % (vol/vol), 5 min) was “+” and the croissance ([3]; Conc. 1 % (vol/vol), 15 min) was “+”. The croissance ([3]; Conc. 1 % (vol/vol), 30 min) was “-”, the croissance ([3]; Conc. 1 % (vol/vol), 60 min) was “-” and the croissance ([3]; Conc. 5 % (vol/vol), 1 min) was “+”. For the same molecule, the croissance ([3]; Conc. 5 % (vol/vol), 3 min) was “+”, the croissance ([3]; Conc. 5 % (vol/vol), 5 min) was “+” and the croissance ([3]; Conc. 5 % (vol/vol), 15 min) was “-”. The croissance ([3]; Conc. 5 % (vol/vol), 30 min) was “-”, the croissance ([3]; Conc. 5 % (vol/vol), 60 min) was “-” and the croissance ([3]; Conc. 10 % (vol/vol), 1 min) was “+”. For the same molecule, the croissance ([3]; Conc. 10 % (vol/vol), 3 min) was “-”, the croissance ([3]; Conc. 10 % (vol/vol), 5 min) was “-” and the croissance ([3]; Conc. 10 % (vol/vol), 15 min) was “-”. For the same molecule, the croissance ([3]; Conc. 10 % (vol/vol), 30 min) was “-”, the croissance ([3]; Conc. 10 % (vol/vol), 60 min) was “-” and the croissance ([3]; Conc. 25 % (vol/vol), 1 min) was “+”. The croissance ([3]; Conc. 25 % (vol/vol), 3 min) was “-”, the croissance ([3]; Conc. 25 % (vol/vol), 5 min) was “-” and the croissance ([3]; Conc. 25 % (vol/vol), 15 min) was “-”. For the same molecule, the croissance ([3]; Conc. 25 % (vol/vol), 30 min) was “-” and the croissance ([3]; Conc. 25 % (vol/vol), 60 min) was “-”.
